Legend:
Format in all cases: biochemical
GST-tagged SIK3 = GST-tagged SIK3 (Homo sapiens (Human), UniProt Q9Y2K2); experiment: SIK3 inhibition test (ADP-Glo Max Assay); conditions: enzyme 100 nM, AMARA Peptide 100 μM, ATP 1 mM, 2 hours room temperature
Procedure: (§1) The compounds described in Examples above were used in the SIK1, SIK2, and SIK3 inhibition test.
(§2) The inhibitory activity of the compound for SIK1, SIK2, and SIK3 enzymes was assayed by measuring the amount of ADP, an enzyme reaction product, with ADP-Glo™ Max Assay (Promega). Enzymes, specifically, GST-tagged SIK1 (Carna Biosciences, Inc.), GST-tagged SIK2 (Carna Biosciences, Inc.), and GST-tagged SIK3 (SignalChem) were prepared in a reaction buffer (15 mM tris-hydrochloric acid buffer (pH 7.5), 0.001% Triton X-100, 0.01% BSA) so that the final concentration would be 20 nM, 3 nM, and 100 nM. Enzyme solutions were thus formed. In a reaction buffer, AMARA Peptide (SignalChem) as a substrate with a final concentration of 200 μM (SIK1, SIK2) or 100 μM (SIK3), ATP (Promega) with a final concentration of 1 mM, and magnesium chloride with a final concentration of 5 mM were prepared. Substrate solutions were thus formed. The enzyme solution, the substrate solution, and a DMSO solution of a concentration of the test compound were mixed together and reacted at room temperature for 2 hours. After the reaction, ADP-Glo™ Reagent (Promega) was added, and the reaction was performed at room temperature for 30 minutes. Subsequently, ADP-Glo™ Max Detection Reagent (Promega) was added, and the reaction was performed at room temperature for 30 minutes. The emission by the luciferase reaction was measured with PHERAstar FSX (BMG LABTECH).
(§3) The inhibitory ratio (%) was calculated by: % Inhibition={1−(intensity of sample−intensity of blank (no enzyme solution added))/(intensity of control (DMSO alone)−intensity of blank)}×100. The inhibitory concentration IC50 was calculated based on 16 data values obtained in the concentration response test.

GST-tagged SIK2 = GST-tagged SIK2 (Homo sapiens (Human), UniProt Q9H0K1); experiment: SIK2 inhibition test (ADP-Glo Max Assay); conditions: enzyme 3 nM, AMARA Peptide 200 μM, ATP 1 mM, 2 hours room temperature
Procedure: as §1, §2, §3

GST-tagged SIK1 = GST-tagged SIK1 (Homo sapiens (Human), UniProt P57059); experiment: SIK1 inhibition test (ADP-Glo Max Assay); conditions: enzyme 20 nM, AMARA Peptide 200 μM, ATP 1 mM, 2 hours room temperature
Procedure: as §1, §2, §3

Chain of GST-tagged SIK3 (Q9Y2K2 whole entry): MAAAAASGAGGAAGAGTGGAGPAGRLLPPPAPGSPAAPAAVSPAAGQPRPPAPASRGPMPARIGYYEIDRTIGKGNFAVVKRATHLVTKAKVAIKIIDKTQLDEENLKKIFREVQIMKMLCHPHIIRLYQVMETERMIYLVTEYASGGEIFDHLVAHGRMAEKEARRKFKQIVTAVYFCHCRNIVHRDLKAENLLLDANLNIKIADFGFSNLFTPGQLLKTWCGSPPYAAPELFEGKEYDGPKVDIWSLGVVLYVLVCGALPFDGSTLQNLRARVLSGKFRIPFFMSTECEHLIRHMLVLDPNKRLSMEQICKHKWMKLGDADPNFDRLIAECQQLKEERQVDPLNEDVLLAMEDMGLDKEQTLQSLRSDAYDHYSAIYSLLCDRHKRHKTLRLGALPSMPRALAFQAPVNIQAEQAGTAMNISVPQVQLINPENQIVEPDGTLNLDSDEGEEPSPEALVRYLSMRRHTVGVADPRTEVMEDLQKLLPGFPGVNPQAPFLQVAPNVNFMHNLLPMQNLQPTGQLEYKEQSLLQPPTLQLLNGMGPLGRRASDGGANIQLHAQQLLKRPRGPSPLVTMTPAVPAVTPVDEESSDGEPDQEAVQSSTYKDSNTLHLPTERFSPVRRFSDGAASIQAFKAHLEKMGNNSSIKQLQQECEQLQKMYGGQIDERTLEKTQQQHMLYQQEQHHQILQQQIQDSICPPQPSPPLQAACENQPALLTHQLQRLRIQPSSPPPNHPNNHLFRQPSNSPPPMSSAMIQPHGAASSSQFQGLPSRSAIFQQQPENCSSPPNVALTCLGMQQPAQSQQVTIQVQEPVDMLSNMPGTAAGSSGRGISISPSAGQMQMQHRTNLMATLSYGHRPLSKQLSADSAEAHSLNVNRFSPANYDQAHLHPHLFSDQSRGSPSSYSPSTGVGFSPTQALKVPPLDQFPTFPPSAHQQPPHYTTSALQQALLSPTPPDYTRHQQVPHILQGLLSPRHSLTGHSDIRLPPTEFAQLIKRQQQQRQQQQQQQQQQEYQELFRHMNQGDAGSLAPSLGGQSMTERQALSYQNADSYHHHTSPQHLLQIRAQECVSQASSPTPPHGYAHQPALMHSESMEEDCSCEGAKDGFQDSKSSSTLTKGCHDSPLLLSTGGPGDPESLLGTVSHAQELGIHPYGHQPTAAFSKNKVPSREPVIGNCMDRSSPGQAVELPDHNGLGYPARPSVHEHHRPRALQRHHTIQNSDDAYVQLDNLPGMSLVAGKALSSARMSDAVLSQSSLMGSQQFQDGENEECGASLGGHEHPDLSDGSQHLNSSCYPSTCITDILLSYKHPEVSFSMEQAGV
Chain of GST-tagged SIK2 (Q9H0K1 whole entry): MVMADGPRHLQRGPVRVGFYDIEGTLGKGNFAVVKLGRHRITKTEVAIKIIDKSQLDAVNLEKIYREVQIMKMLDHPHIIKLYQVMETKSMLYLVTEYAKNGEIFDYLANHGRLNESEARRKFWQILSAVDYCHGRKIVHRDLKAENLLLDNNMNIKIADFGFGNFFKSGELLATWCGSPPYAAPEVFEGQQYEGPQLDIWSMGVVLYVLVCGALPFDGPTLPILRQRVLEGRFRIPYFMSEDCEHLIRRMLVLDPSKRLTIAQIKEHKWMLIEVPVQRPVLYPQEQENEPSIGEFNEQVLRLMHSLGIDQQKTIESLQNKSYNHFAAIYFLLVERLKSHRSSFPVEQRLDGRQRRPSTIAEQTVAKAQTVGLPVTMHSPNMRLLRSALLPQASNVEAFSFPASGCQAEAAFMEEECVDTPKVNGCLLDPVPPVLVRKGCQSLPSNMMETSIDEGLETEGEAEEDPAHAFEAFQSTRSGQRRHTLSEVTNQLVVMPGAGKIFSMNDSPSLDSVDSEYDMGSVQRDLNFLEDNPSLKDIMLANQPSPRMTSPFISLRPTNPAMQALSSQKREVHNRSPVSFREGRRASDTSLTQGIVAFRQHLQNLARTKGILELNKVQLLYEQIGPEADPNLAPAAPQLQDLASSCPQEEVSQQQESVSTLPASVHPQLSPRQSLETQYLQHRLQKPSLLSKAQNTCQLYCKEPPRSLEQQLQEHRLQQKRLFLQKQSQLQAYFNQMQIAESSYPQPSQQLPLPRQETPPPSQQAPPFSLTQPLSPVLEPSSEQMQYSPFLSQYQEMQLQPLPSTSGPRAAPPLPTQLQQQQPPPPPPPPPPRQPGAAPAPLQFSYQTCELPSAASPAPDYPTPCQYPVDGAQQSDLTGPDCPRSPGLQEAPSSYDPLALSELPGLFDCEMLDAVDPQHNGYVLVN
Chain of GST-tagged SIK1 (P57059 whole entry): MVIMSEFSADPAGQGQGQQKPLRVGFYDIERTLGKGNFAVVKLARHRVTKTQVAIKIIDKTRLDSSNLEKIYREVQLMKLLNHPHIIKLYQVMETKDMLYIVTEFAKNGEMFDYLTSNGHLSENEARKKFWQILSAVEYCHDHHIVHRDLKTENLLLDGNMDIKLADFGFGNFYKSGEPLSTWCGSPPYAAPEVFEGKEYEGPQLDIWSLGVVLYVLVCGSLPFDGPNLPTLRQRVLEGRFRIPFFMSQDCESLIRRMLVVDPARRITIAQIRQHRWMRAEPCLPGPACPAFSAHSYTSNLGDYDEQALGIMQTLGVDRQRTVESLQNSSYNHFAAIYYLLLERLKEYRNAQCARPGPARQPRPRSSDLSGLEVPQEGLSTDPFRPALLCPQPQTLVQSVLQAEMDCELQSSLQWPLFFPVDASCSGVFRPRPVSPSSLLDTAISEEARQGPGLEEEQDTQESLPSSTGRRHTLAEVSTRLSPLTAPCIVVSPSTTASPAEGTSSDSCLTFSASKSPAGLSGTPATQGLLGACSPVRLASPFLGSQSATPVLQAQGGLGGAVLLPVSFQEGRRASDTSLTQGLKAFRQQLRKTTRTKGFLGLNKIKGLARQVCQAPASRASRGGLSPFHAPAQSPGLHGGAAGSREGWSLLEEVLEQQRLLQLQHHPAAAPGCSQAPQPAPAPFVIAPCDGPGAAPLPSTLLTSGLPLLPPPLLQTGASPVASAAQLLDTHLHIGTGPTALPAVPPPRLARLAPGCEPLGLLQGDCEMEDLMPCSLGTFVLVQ

Compound | IC50 (GST-tagged SIK3) | IC50 (GST-tagged SIK2) | IC50 (GST-tagged SIK1)
COc1cc(-c2c3c(C#N)cc(-c4cnn(C)c4)cc3nn2C)cc(OC(F)F)c1C(=O)N1CC(O)(C(F)(F)F)C1 [Example 7, 3-[3-(difluoromethoxy)-4-[3-hydroxy-3-(trifluoromethyl)azetidin-1-carbonyl]-5-methoxyphenyl]-2-methyl-6-(1-methylpyrazol-4-yl)indazole-4-carbonitrile] | 12.4 nM | 16.2 nM | 17.1 nM
COc1cc(-c2c3c(C#N)cc(-c4cnn(C)c4)cc3nn2C)cc(OC(F)F)c1C(=O)N1CC(C)(C(F)F)C1 [Example 8, 3-[3-(difluoromethoxy)-4-[3-(difluoromethyl)-3-methylazetidin-1-carbonyl]-5-methoxyphenyl]-2-methyl-6-(1-methylpyrazol-4-yl)indazole-4-carbonitrile] | 5.8 nM | 9.7 nM | 7.2 nM
COc1cc(-c2c3c(C#N)cc(-c4cnn(C)c4)cc3nn2C)cc(OC(F)F)c1C(=O)N1CC(OC(F)F)C1 [Example 9, 3-[3-(difluoromethoxy)-4-[3-(difluoromethoxy)azetidine-1-carbonyl]-5-methoxyphenyl]-2-methyl-6-(1-methylpyrazol-4-yl)indazole-4-carbonitrile] | 10 nM | 12.2 nM | 16.2 nM
COc1cc(-c2c3c(C#N)cc(-c4cnn(C)c4)cc3nn2C)cc(OC(F)F)c1C(=O)NCC1CC1(F)F (stereo not drawn) [Example 10] | 6.3 nM | 7.3 nM | 13.8 nM
COc1cc(-c2c3c(C(F)F)cc(-c4cnn(C)c4)cc3nn2C)cc(OC(F)F)c1C(=O)N[C@@H]1CC1(F)F [Example 11, N-[(1R)-2,2-difluorocyclopropyl]-2-(difluoromethoxy)-4-[4-(difluoromethyl)-2-methyl-6-(1-methylpyrazol-4-yl)indazol-3-yl]-6-methoxybenzamide] | 2.4 nM | 12.3 nM | 9.8 nM
COc1cc(-c2c3c(C#N)cc(-c4cnn(C)c4)cc3nn2C)cc(OC(F)F)c1C(=O)NCC1(F)CC1 [Example 12, 4-[4-cyano-2-methyl-6-(1-methylpyrazol-4-yl)indazol-3-yl]-2-(difluoromethoxy)-N-[(1-fluorocyclopropyl)methyl]-6-methoxybenzamide] | 7 nM | 7 nM | 12.4 nM
COc1cc(-c2c3c(OC)cc(-c4cnn(C)c4)cc3nn2C)cc(OC(F)F)c1C(=O)N1CC(O)(C(F)(F)F)C1 [Example 13, [2-(difluoromethoxy)-6-methoxy-4-[4-methoxy-2-methyl-6-(1-methylpyrazol-4-yl)indazol-3-yl]phenyl]-[3-hydroxy-3-(trifluoromethyl)azetidin-1-yl]methanone] | 3.8 nM | 7.2 nM | 4.6 nM
COc1cc(-c2c3c(OC(F)F)cc(-c4cnn(C)c4)cc3nn2C)cc(OC(F)F)c1C(=O)N1CC(O)(C(F)(F)F)C1 [Example 14, [2-(difluoromethoxy)-4-[4-(difluoromethoxy)-2-methyl-6-(1-methylpyrazol-4-yl)indazol-3-yl]-6-methoxyphenyl]-[3-hydroxy-3-(trifluoromethyl)azetidin-1-yl]methanone] | 2.4 nM | 8.8 nM | 3.6 nM
CCn1cc(-c2cc(C#N)c3c(-c4cc(OC)c(C(=O)N5CC(O)(C(F)(F)F)C5)c(OC(F)F)c4)n(C)nc3c2)cn1 [Example 15, 3-[3-(difluoromethoxy)-4-[3-hydroxy-3-(trifluoromethyl)azetidin-1-carbonyl]-5-methoxyphenyl]-6-(1-ethylpyrazol-4-yl)-2-methylindazole-4-carbonitrile] | 1.4 nM | 10.3 nM | 9.2 nM
COc1cc(-c2c3c(C#N)cc(-c4cnn(CC(C)(C)O)c4)cc3nn2C)cc(OC(F)F)c1C(=O)N1CC(O)(C(F)(F)F)C1 [Example 16] | 3.2 nM | 13.8 nM | 8.7 nM
COc1cc(-c2c3c(C#N)cc(-c4cnn(CC(=O)N(C)C)c4)cc3nn2C)cc(OC(F)F)c1C(=O)N1CC(O)(C(F)(F)F)C1 [Example 17, 2-[4-[4-cyano-3-[3-(difluoromethoxy)-4-[3-hydroxy-3-(trifluoromethyl)azetidin-1-carbonyl]-5-methoxyphenyl]-2-methylindazol-6-yl]pyrazol-1-yl]-N,N-dimethylacetamide] | 7.1 nM | 8.5 nM | 5.4 nM
CCn1cc(-c2cc(C#N)c3c(-c4cc(OC)c(C(=O)N[C@@H]5C[C@@H]5F)c(OC(F)F)c4)n(C)nc3c2)cn1 [Example 18, 4-[4-cyano-6-(1-ethylpyrazol-4-yl)-2-methylindazol-3-yl]-2-(difluoromethoxy)-N-[(1R,2S)-2-fluorocyclopropyl]-6-methoxybenzamide] | 7 nM | 3.1 nM | 1.4 nM
COc1cc(-c2c3c(C#N)cc(-c4cnn(CCN(C)C)c4)cc3nn2C)cc(OC(F)F)c1C(=O)N[C@@H]1C[C@@H]1F [Example 19, 4-[4-cyano-6-[1-[2-(dimethylamino)ethyl]pyrazol-4-yl]-2-methylindazol-3-yl]-2-(difluoromethoxy)-N-[(1R,2S)-2-fluorocyclopropyl]-6-methoxybenzamide] | 8.7 nM | 1.3 nM | 2.5 nM
COc1cc(-c2c3c(C#N)cc(-c4cnn(C(C)(C)C)c4)cc3nn2C)cc(OC(F)F)c1C(=O)N[C@@H]1C[C@@H]1F [Example 20, 4-[6-(1-tert-butylpyrazol-4-yl)-4-cyano-2-methylindazol-3-yl]-2-(difluoromethoxy)-N-[(1R,2S)-2-fluorocyclopropyl]-6-methoxybenzamide] | 13.7 nM | 5.8 nM | 4.4 nM
COc1cc(-c2c3c(C#N)cc(-c4cc(C)ns4)cc3nn2C)cc(OC(F)F)c1C(=O)N[C@@H]1C[C@@H]1F [Example 21, 4-[4-cyano-2-methyl-6-(3-methyl-1,2-thiazol-5-yl)indazol-3-yl]-2-(difluoromethoxy)-N-[(1R,2S)-2-fluorocyclopropyl]-6-methoxybenzamide] | 4 nM | 5.6 nM | 16.9 nM
COc1cc(-c2c3c(C#N)cc(-c4cnn(C5CCOC5)c4)cc3nn2C)cc(OC(F)F)c1C(=O)N[C@@H]1C[C@@H]1F (stereo partly drawn) [Example 22, 4-[4-cyano-2-methyl-6-[1-(oxolan-3-yl)pyrazol-4-yl]indazol-3-yl]-2-(difluoromethoxy)-N-[(1R,2S)-2-fluorocyclopropyl]-6-methoxybenzamide] | 7.7 nM | 3.2 nM | 2 nM
COc1cc(-c2c3c(C#N)cc(-c4cnn(C)c4)cc3nn2C)cc(OC(F)F)c1C(=O)N[C@@H]1CC1(F)F [Example 23, 4-[4-cyano-2-methyl-6-(1-methylpyrazol-4-yl)indazol-3-yl]-N-[(1R)-2,2-difluorocyclopropyl]-2-(difluoromethoxy)-6-methoxybenzamide] | 5 nM | 2.5 nM | 2.1 nM
COc1cc(-c2c3c(C#N)cc(-c4cc[nH]n4)cc3nn2C)cc(OC(F)F)c1C(=O)N[C@@H]1C[C@@H]1F [Example 24, 4-[4-cyano-2-methyl-6-(1H-pyrazol-3-yl)indazol-3-yl]-2-(difluoromethoxy)-N-[(1R,2S)-2-fluorocyclopropyl]-6-methoxybenzamide] | 11.8 nM | 6.5 nM | 6.6 nM
COc1cc(-c2c3c(C#N)cc(-c4cnn(C)c4)cc3nn2C)cc(OC(F)F)c1C(=O)N1CC(O)(C(F)F)C1 [Example 25, 3-[3-(difluoromethoxy)-4-[3-(difluoromethyl)-3-hydroxyazetidin-1-carbonyl]-5-methoxyphenyl]-2-methyl-6-(1-methylpyrazol-4-yl)indazole-4-carbonitrile] | 12.8 nM | 10.5 nM | 9.6 nM
COc1cc(-c2c3c(OCC4COC4)cc(-c4cnn(C)c4)cc3nn2C)cc(OC(F)F)c1C(=O)N1CC(O)(C(F)(F)F)C1 [Example 26, [2-(difluoromethoxy)-6-methoxy-4-[2-methyl-6-(1-methylpyrazol-4-yl)-4-(oxetan-3-ylmethoxy)indazol-3-yl]phenyl]-[3-hydroxy-3-(trifluoromethyl)azetidin-1-yl]methanone] | 11.2 nM | 4.3 nM | 7.1 nM
COc1cc(-c2c3c(OCC4CCC4)cc(-c4cnn(C)c4)cc3nn2C)cc(OC(F)F)c1C(=O)N1CC(O)(C(F)(F)F)C1 [Example 27, [4-[4-(cyclobutylmethoxy)-2-methyl-6-(1-methylpyrazol-4-yl)indazol-3-yl]-2-(difluoromethoxy)-6-methoxyphenyl]-[3-hydroxy-3-(trifluoromethyl)azetidin-1-yl]methanone] | 16 nM | 12.7 nM | 13.7 nM
